The source of these data is US6608176B2, “Taste receptor for umami (monosodium glutamate) taste” (University of Miami, priority 2000, dated 2003).

SMILES strings stand for the structures. Where two headings read alike, the source gives them in different places.

One test has as its system chorda tympani nerve. Particulars: chorda tympani nerve recordings; cited from earlier work.
The test system of test [1] is glossopharyngeal nerve / sensory afferents. Particulars: cited from earlier work.
Test [2] concerns the target T1, brain-mGluR4 (Rattus norvegicus, UniProt P31423).
T1 construct: Full-length cDNAs for brain-mGluR4 and taste-mGluR4 were reconstructed; expressed in transfected cells
Kind of test: Suppression of forskolin-stimulated cAMP in CHO cells stably expressing brain-mGluR4. In kind it is cell-based. As for the experimental part:
(§1) CHO cells were transfected with brain-mGluR4 and taste-mGluR4 constructs and with non-recombinant pcDNA3.1 vector, all in parallel, using a cationic lipid, DMRIE-C (Gibco-BRL). Cells with stably integrated plasmid were selected and maintained in 300 μg per ml G418 starting 24 h after transfection. The medium consisted of Dulbecco's Modified Eagle Medium (D-MEM) supplemented with 10% fetal bovine serum, 2 mM glutamine, 1.7 mM proline and 100 units per ml penicillin-streptomycin^35. Clones were lifted within two weeks and screened for expression by western blot analysis. A single clone for each form was propagated for functional assays. Stably transfected but non-clonal lines of cells from independent transfections with both forms of mGluR4 and non-recombinant vector were also maintained and used in functional assays.
(§2) CHO cells, stably transfected with brain-mGluR4, taste-mGluR4 or non-recombinant pcDNA3.1, were maintained as sub-confluent cultures and refed every two days to minimize chronic stimulation of expressed receptors by glutamate released from dead cells. Cells were plated 20 h before assay in a 96-well microtiter plate at 2×10^4 cells per 200 μl well. Fresh medium was replaced for one hour immediately before assaying receptor function as described^35. Briefly, cells were incubated in Dulbecco's phosphate buffered saline containing 1 mM IBMX for 20 min followed by stimulation for 10 min in 10 μM forskolin and 1 mM IBMX, with or without agonists. Stimulation buffer was rapidly removed, and cells were lysed in 200 μl 0.25% dodecyltrimethyl-ammonium bromide in 50 mM acetate buffer (Amersham, Piscataway, N.J.). Released cAMP in 20% of each lysate was assayed directly using an Amersham EIA-based kit and plotted as mean±s.e. of 3-6 experiments, each performed with triplicate wells of cells.
(§3) In transfected CHO cells, activation of group III mGluRs leads to a suppression of forskolin-stimulated cAMP synthesis^35. […] Thus, two separate lines of CHO cells expressing taste-mGluR4 were examined.

The target in the next test is T2, taste-mGluR4 (Rattus norvegicus, UniProt P31423).
T2 construct: expressed in transfected cells
Kind of test: Suppression of forskolin-stimulated cAMP in CHO cells stably expressing taste-mGluR4. In kind it is cell-based. As for the experimental part:
as §1, §2, §3

Test [3] has as its system CHO cells transfected with non-recombinant pcDNA3.1 vector. Nature of the test: cAMP level in control CHO cells transfected with non-recombinant vector. In kind it is cell-based, Chinese hamster. Particulars: for cAMP level relative to controls: n=9; for change of cAMP concentration in control cells: non-recombinant vector. As for the experimental part: as §1, §2
Background: cAMP levels reflect the balance of adenylyl cyclase and phosphodiesterase activity.

Test [4] has as its target T1, brain-mGluR4. The following applies: cited from earlier work.
Another test relates to MSG taste detection. Particulars: rats, behavioral assays; cited from earlier work.

T1 sequence (P31423 33-912): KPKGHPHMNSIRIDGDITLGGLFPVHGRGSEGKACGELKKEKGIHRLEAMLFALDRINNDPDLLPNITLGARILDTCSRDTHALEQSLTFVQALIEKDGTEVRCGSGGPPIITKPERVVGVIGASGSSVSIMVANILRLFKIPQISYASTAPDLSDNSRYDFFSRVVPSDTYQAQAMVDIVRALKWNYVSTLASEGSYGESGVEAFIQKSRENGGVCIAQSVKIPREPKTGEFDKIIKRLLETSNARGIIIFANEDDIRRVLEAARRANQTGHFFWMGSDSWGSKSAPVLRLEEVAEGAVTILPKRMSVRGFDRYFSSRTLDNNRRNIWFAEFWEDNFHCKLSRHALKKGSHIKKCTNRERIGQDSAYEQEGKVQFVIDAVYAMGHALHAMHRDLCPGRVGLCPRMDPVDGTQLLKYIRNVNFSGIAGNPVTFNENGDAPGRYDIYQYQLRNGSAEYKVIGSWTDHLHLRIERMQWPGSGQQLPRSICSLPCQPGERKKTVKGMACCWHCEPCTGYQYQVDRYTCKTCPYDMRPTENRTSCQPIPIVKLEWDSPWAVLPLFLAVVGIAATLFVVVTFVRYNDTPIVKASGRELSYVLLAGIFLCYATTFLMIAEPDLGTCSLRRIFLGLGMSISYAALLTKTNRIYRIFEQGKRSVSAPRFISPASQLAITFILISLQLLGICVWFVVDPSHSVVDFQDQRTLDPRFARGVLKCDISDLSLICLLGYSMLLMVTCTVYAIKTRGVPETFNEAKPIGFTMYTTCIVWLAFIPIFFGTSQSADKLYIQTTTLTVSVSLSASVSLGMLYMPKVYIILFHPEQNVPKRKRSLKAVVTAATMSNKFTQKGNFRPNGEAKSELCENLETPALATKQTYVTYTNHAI
T2 sequence (P31423 309-912): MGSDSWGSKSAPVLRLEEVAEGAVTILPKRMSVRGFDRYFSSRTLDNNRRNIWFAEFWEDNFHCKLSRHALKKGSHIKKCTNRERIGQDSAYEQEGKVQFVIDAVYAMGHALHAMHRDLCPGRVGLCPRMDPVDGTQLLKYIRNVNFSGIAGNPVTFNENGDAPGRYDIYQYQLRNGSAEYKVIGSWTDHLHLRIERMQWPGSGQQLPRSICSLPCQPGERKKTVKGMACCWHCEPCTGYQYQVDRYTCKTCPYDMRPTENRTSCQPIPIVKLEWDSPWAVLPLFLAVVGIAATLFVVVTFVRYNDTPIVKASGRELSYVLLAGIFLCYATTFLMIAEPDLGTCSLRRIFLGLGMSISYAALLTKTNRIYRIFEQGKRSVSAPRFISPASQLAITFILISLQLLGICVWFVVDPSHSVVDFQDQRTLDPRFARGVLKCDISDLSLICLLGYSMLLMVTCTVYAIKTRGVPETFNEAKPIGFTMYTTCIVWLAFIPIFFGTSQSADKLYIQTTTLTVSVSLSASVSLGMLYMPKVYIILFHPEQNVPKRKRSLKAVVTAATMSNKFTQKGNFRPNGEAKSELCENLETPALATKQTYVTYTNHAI

On to `C[C@](N)(CCP(=O)(O)O)C(=O)O` [MAP4], for which the “block of taste nerve responses to glutamate and L-AP4” value with chorda tympani nerve is “fails to block”.
As to `N[C@@H](CCC(=O)O)C(=O)[O-].[Na+]` [L-MSG, monosodium L-glutamate], the “detection threshold in recordings from sensory afferents” value is 1 to 3 mM in test [1] (adult rodents) and 0.1 to 0.3 mM in test [1] (juvenile rodents).
On to `N[C@@H](CCC(=O)O)C(=O)O` [L-glutamate], for which the EC50 (usually the concentration giving half of the maximal effect) at brain-mGluR4 [2] (CHO cells stably expressing brain-mGluR4, 10 μM forskolin, 1 mM IBMX) was 2 µM; at taste-mGluR4 (CHO cells expressing taste-mGluR4, 10 μM forskolin, 1 mM IBMX, read-out: EC50 for L-glutamate for taste-mGluR4), 280 µM; at taste-mGluR4 (line with expression 2-fold lower than parallel brain-mGluR4 line, read-out: EC50, taste-mGluR4 CHO line), 250 µM; on taste-mGluR4 (line with expression 100-fold lower than parallel brain-mGluR4 line, read-out: EC50, taste-mGluR4 CHO line) it was 300 µM; at brain-mGluR4 [4] (mGluR4a, literature ref 35, read-out: EC50 on mGluR4a, earlier reports) it was 5 µM. Besides, the “threshold concentration for activating taste-mGluR4” value on taste-mGluR4 (CHO cells expressing taste-mGluR4) amounted to 30 µM. On taste-mGluR4 (CHO cells, taste vs brain mGluR4), the “concentration needed for taste mGluR4 relative to brain-derived neurotransmitter mGluR4” value is “about 100 fold”. The cAMP response result at taste-mGluR4 (at concentrations of 30 μM or below) was “no response”. In addition, the “cAMP level relative to controls” value in test [3] (1 mM) is reported as 127±16%; in test [3] (10 mM), 132±19%. The taste nerve threshold in test [1] (adult mice and rats) was 2 to 10 mM. The “threshold for glutamate taste responses in the glossopharyngeal nerve” value in test [1] (juvenile mice) is 100 µM.
For the compound `NC(CCP(=O)(O)O)C(=O)O` [L-AP4], on brain-mGluR4 [2] (brain-mGluR4 CHO cells, FIG. 4), the “concentration above which the cAMP response saturates” value is reported as “above 10 μM”. Besides, the cAMP response result was “no response” on taste-mGluR4 (10 μM L-AP4); “progressively larger responses” on taste-mGluR4 (100 μM and 1 mM L-AP4). The “change of cAMP concentration in control cells” value in test [3] is reported as “did not change”. At brain-mGluR4 [4] (brain mGluR4, literature ref 35, read-out: published EC50), the EC50 was 0.5 to 1 µM. The “concentration near the MSG taste detection threshold” value with MSG taste detection is approximately 100 µM.
On to `N[C@H](CCC(=O)O)C(=O)O` [D-glutamate], for which the “cAMP level relative to controls” value is on record as 126±17% at brain-mGluR4 [2] (1 MM D-glutamate, brain-mGluR4 cells) and 99±3% on taste-mGluR4 (1 MM D-glutamate, taste-mGluR4 cells). For the same compound, the “change of cAMP concentration in control cells” value in test [3] was “did not alter cAMP concentrations”.
